Measurements from ChEMBL document CHEMBL1201862, “PubChem BioAssay data set” (2004).
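48-hour exposure; five concentrations; linearly interpolated endpoints. GI50 is the concentration that inhibits growth by half.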 Active and inactive are the calls of the source. Rule as the data show it: active = GI50 up to about 1.1 µM and inactive = higher. Residues, ends and D or L forms follow the SMILES beside them. *: point of attachment. Boc = CC(C)(C)OC(=O)*; Bz = O=C(c1ccccc1)*

Assays:
Experiment in all cases: DTP human tumour cell line panel, 48 h
NCI-H226 = system: NCI-H226
UACC-257 = system: UACC-257
U-251 = system: U-251
K562 = system: K562
M14 = system: M14
MOLT-4 = system: MOLT-4
OVCAR-3 = system: OVCAR-3
HL-60 = system: HL-60
SW-620 = system: SW-620
BT-549 = system: BT-549
HT-29 = system: HT-29
HOP-62 = system: HOP-62
OVCAR-5 = system: OVCAR-5
NCI-H460 = system: NCI-H460
SNB-19 = system: SNB-19
A498 = system: A498
DU-145 = system: DU-145
Hs-578T = system: Hs-578T
SK-MEL-2 = system: SK-MEL-2
LOX IMVI = system: LOX IMVI

Compound	GI50 (NCI-H226)	GI50 (UACC-257)	GI50 (U-251)	GI50 (K562)	GI50 (M14)	GI50 (MOLT-4)	GI50 (OVCAR-3)	GI50 (HL-60)	GI50 (SW-620)	GI50 (BT-549)	GI50 (HT-29)	GI50 (HOP-62)	GI50 (OVCAR-5)	GI50 (NCI-H460)	GI50 (SNB-19)	GI50 (A498)	GI50 (DU-145)	GI50 (Hs-578T)	GI50 (SK-MEL-2)	GI50 (LOX IMVI)
CCCCCC(=O)N[C@@H](c1ccccc1)C(O)C(=O)OC1C[C@@]2(O)C(OC(=O)c3ccccc3)C3[C@](C)(C(=O)[C@H](O)C(=C1C)C2(C)C)C(OC1OCC(O)C(O)C1O)C[C@H]1OC[C@@]31OC(C)=O (some centres not stated)	> 100 µM (inactive)	> 100 µM (inactive)	1.64 µM (inactive)	0.966 µM (active)	2.32 µM (inactive)	2.45 µM (inactive)	0.706 µM (active)	0.542 µM (active)	16.1 µM (inactive)	2.62 µM (inactive)	1.19 µM (inactive)	5.05 µM (inactive)	> 20.7 µM (inactive)	0.757 µM (active)	4.91 µM (inactive)	25.5 µM (inactive)	2.88 µM (inactive)	0.198 µM (active)		
COc1cccc(/C=C2/Sc3scc(-c4ccccc4)[n+]3C2=O)c1O	19.4 µM (inactive)	19.7 µM (inactive)	19.6 µM (inactive)		26 µM (inactive)	16.1 µM (inactive)	26.6 µM (inactive)	11.9 µM (inactive)	18.1 µM (inactive)	21.7 µM (inactive)	20.8 µM (inactive)	23.8 µM (inactive)	36.7 µM (inactive)	17.3 µM (inactive)	21.3 µM (inactive)		22.1 µM (inactive)	42.7 µM (inactive)	23.3 µM (inactive)	16.2 µM (inactive)
Cc1c2c(OCC(O)CN3CCN(c4ccccc4)CC3)nn(C)c(=O)c2c(C)n1-c1ccccc1 (configuration not stated)	23.2 µM (inactive)	28 µM (inactive)	16.6 µM (inactive)	27 µM (inactive)	16.3 µM (inactive)	30.4 µM (inactive)	20.5 µM (inactive)	20.1 µM (inactive)	29.9 µM (inactive)	21.9 µM (inactive)	22.7 µM (inactive)	39.6 µM (inactive)	23.4 µM (inactive)	25 µM (inactive)	34.3 µM (inactive)	20.3 µM (inactive)	37.9 µM (inactive)	24.4 µM (inactive)	17.9 µM (inactive)	
N#Cc1cnc(-n2[nH]c3c(c2=O)CCCC3)[nH]c1=O	47.8 µM (inactive)	55 µM (inactive)	58.6 µM (inactive)	69.8 µM (inactive)	38.1 µM (inactive)	44.5 µM (inactive)		34.8 µM (inactive)	50 µM (inactive)	73.5 µM (inactive)	41.2 µM (inactive)		74.6 µM (inactive)	36.5 µM (inactive)	> 100 µM (inactive)	59 µM (inactive)	64.1 µM (inactive)	> 100 µM (inactive)	71.3 µM (inactive)	
CC(NC(=O)C(Cc1ccc(OC(=O)c2ccccc2)cc1)NC(=O)OC(C)(C)C)C(=O)NC(Cc1ccccc1)C(=O)NCC(N)=O (configuration not stated) (Boc-Y(Bz)AFG-NH2; configuration not given here)	20.9 µM (inactive)	19.1 µM (inactive)	17.8 µM (inactive)	25.8 µM (inactive)	17.9 µM (inactive)	29.3 µM (inactive)		25.6 µM (inactive)	31.1 µM (inactive)	19 µM (inactive)	19.1 µM (inactive)	14.9 µM (inactive)	24.4 µM (inactive)	18.3 µM (inactive)	18.6 µM (inactive)	21.6 µM (inactive)	20.4 µM (inactive)	20.3 µM (inactive)	17.9 µM (inactive)	22 µM (inactive)
CC1(c2nc3cc(Cl)c(Cl)cc3[nH]2)CCC(CO)C(C)(C)O1 (configuration not stated)	12.4 µM (inactive)	29.6 µM (inactive)	38.6 µM (inactive)	36.7 µM (inactive)	26.2 µM (inactive)	24.5 µM (inactive)	29.5 µM (inactive)	15 µM (inactive)	30.9 µM (inactive)	17.1 µM (inactive)	16.4 µM (inactive)	33.3 µM (inactive)	82.2 µM (inactive)		54.1 µM (inactive)		38 µM (inactive)	14.8 µM (inactive)	30.3 µM (inactive)	27.7 µM (inactive)
COc1ccc2c(c1)C1OCCNC1CC2 (configuration not stated)	> 100 µM (inactive)	> 100 µM (inactive)	> 100 µM (inactive)	> 100 µM (inactive)	> 100 µM (inactive)	> 100 µM (inactive)		> 100 µM (inactive)	> 100 µM (inactive)	> 100 µM (inactive)	> 100 µM (inactive)	> 100 µM (inactive)	> 100 µM (inactive)		> 100 µM (inactive)	40.6 µM (inactive)	> 100 µM (inactive)	> 100 µM (inactive)	> 100 µM (inactive)	> 100 µM (inactive)
